Species: Rattus norvegicus
Assay: Open TG-GATES - Regimen: Daily Repeat
Format: toxicity, organism-based, Sprague-Dawley
Parameters: regimen Daily Repeat, gender Male, age 6 weeks
Details: in vivo, iv, 0 mg/kg, route intravenous injection, dose level Control; for APTT / Bas / Eos / Fbg / Hb / Ht / Lym / MCH / MCHC / MCV / Mono / Neu / PT / Plat / RBC / Ret / WBC: tissue Blood; for KIDNEY_L / KIDNEY_R / KIDNEY_TOTAL: tissue Kidney; for LIVER: tissue Liver; for A/G / ALP / ALT / AST / BUN / CRE / Ca / Cl / DBIL / GLC / IP / K / LDH / Na / PL / RALB / TBIL / TC / TG / TP / gamma-GTP: tissue Plasma

C[C@@H]1[C@H](O)[C@@H](C)/C=C/C=C/C=C/C=C/C=C/C=C/C=C/[C@H](O[C@@H]2O[C@H](C)[C@@H](O)[C@H](N)[C@@H]2O)C[C@@H]2O[C@](O)(C[C@@H](O)C[C@@H](O)[C@H](O)CC[C@@H](O)C[C@@H](O)CC(=O)O[C@H]1C)C[C@H](O)[C@H]2C(=O)O [AMPHOTERICIN B]
TERMINAL_BW (72 h, time 3 day): 239.8 g
APTT (72 h, time 3 day): 16.6 s
Bas (72 h, time 3 day): 0%
Eos (72 h, time 3 day): 1%
Fbg (72 h, time 3 day): 293.6 mg/dL
Hb (72 h, time 3 day): 13.7 g/dL
Ht (72 h, time 3 day): 40.1%
Lym (72 h, time 3 day): 75.8%
MCH (72 h, time 3 day): 20.5 pg
MCHC (72 h, time 3 day): 34.2%
MCV (72 h, time 3 day): 60 fL
Mono (72 h, time 3 day): 2.2%
Neu (72 h, time 3 day): 19.8%
PT (72 h, time 3 day): 12.6 s
Plat (72 h, time 3 day): 145.3 x10_4/uL
RBC (72 h, time 3 day): 668.2 x10_4/ul
Ret (72 h, time 3 day): 4.9%
WBC (72 h, time 3 day): 97.1 x10_2/uL
KIDNEY_L (72 h, time 3 day): 1 g
KIDNEY_R (72 h, time 3 day): 1 g
KIDNEY_TOTAL (72 h, time 3 day): 2 g
LIVER (72 h, time 3 day): 11.5 g
A/G (72 h, time 3 day): 0.8
ALP (72 h, time 3 day): 1512.4 IU/L
ALT (72 h, time 3 day): 38.6 IU/L
AST (72 h, time 3 day): 66.2 IU/L
BUN (72 h, time 3 day): 16.6 mg/dL
CRE (72 h, time 3 day): 0.2 mg/dL
Ca (72 h, time 3 day): 11 mg/dL
Cl (72 h, time 3 day): 105.4 meq/L
DBIL (72 h, time 3 day): 0.02 mg/dL
GLC (72 h, time 3 day): 175.4 mg/dL
IP (72 h, time 3 day): 7.3 mg/dL
K (72 h, time 3 day): 4.1 meq/L
LDH (72 h, time 3 day): 58.6 IU/L
Na (72 h, time 3 day): 142.8 meq/L
PL (72 h, time 3 day): 140.6 mg/dL
RALB (72 h, time 3 day): 2.7 g/dL
TBIL (72 h, time 3 day): 0.046 mg/dL
TC (72 h, time 3 day): 73.6 mg/dL
TG (72 h, time 3 day): 110.8 mg/dL
TP (72 h, time 3 day): 6 g/dL
gamma-GTP (72 h, time 3 day): 1.2 IU/L
TERMINAL_BW ([…], time 7 day): 275.6 g
TERMINAL_BW ([…], time 14 day): 324.6 g
TERMINAL_BW ([…], time 28 day): 391.3 g
APTT ([…], time 7 day): 17.5 s
Bas ([…], time 7 day): 0%
Eos ([…], time 7 day): 1%
Fbg ([…], time 7 day): 264.4 mg/dL
Hb ([…], time 7 day): 13.4 g/dL
Ht ([…], time 7 day): 38.9%
Lym ([…], time 7 day): 79.8%
MCH ([…], time 7 day): 20.7 pg
MCHC ([…], time 7 day): 34.4%
MCV ([…], time 7 day): 60 fL
Mono ([…], time 7 day): 2.2%
Neu ([…], time 7 day): 16%
PT ([…], time 7 day): 12.3 s
Plat ([…], time 7 day): 122.6 x10_4/uL
RBC ([…], time 7 day): 648.2 x10_4/ul
Ret ([…], time 7 day): 4.7%
WBC ([…], time 7 day): 102.1 x10_2/uL
APTT ([…], time 14 day): 16.3 s
Bas ([…], time 14 day): 1%
Eos ([…], time 14 day): 1%
Fbg ([…], time 14 day): 280.6 mg/dL
Hb ([…], time 14 day): 14.6 g/dL
Ht ([…], time 14 day): 41.3%
Lym ([…], time 14 day): 80%
MCH ([…], time 14 day): 20.5 pg
MCHC ([…], time 14 day): 35.4%
MCV ([…], time 14 day): 57.8 fL
Mono ([…], time 14 day): 2.4%
Neu ([…], time 14 day): 15.6%
PT ([…], time 14 day): 12.3 s
Plat ([…], time 14 day): 129.9 x10_4/uL
RBC ([…], time 14 day): 716.4 x10_4/ul
Ret ([…], time 14 day): 4%
WBC ([…], time 14 day): 134.6 x10_2/uL
APTT ([…], time 28 day): 19.2 s
Bas ([…], time 28 day): 0.4%
Eos ([…], time 28 day): 1%
Fbg ([…], time 28 day): 260.4 mg/dL
Hb ([…], time 28 day): 15.3 g/dL
Ht ([…], time 28 day): 43.7%
Lym ([…], time 28 day): 77%
MCH ([…], time 28 day): 18.9 pg
MCHC ([…], time 28 day): 35%
MCV ([…], time 28 day): 54 fL
Mono ([…], time 28 day): 1.4%
Neu ([…], time 28 day): 19%
PT ([…], time 28 day): 13 s
Plat ([…], time 28 day): 114.3 x10_4/uL
RBC ([…], time 28 day): 808.4 x10_4/ul
Ret ([…], time 28 day): 2.2%
WBC ([…], time 28 day): 119.7 x10_2/uL
KIDNEY_L ([…], time 7 day): 1.1 g
KIDNEY_R ([…], time 7 day): 1.1 g
KIDNEY_TOTAL ([…], time 7 day): 2.2 g
KIDNEY_L ([…], time 14 day): 1.3 g
KIDNEY_R ([…], time 14 day): 1.3 g
KIDNEY_TOTAL ([…], time 14 day): 2.6 g
KIDNEY_L ([…], time 28 day): 1.4 g
KIDNEY_R ([…], time 28 day): 1.3 g
KIDNEY_TOTAL ([…], time 28 day): 2.8 g
LIVER ([…], time 7 day): 12 g
LIVER ([…], time 14 day): 14 g
LIVER ([…], time 28 day): 15.5 g
A/G ([…], time 7 day): 0.8
ALP ([…], time 7 day): 1920.8 IU/L
ALT ([…], time 7 day): 35 IU/L
AST ([…], time 7 day): 69 IU/L
BUN ([…], time 7 day): 17 mg/dL
CRE ([…], time 7 day): 0.2 mg/dL
Ca ([…], time 7 day): 11.3 mg/dL
Cl ([…], time 7 day): 105.6 meq/L
DBIL ([…], time 7 day): 0.02 mg/dL
GLC ([…], time 7 day): 179.8 mg/dL
IP ([…], time 7 day): 7 mg/dL
K ([…], time 7 day): 4.3 meq/L
LDH ([…], time 7 day): 63 IU/L
Na ([…], time 7 day): 143.8 meq/L
PL ([…], time 7 day): 136.2 mg/dL
RALB ([…], time 7 day): 2.7 g/dL
TBIL ([…], time 7 day): 0.05 mg/dL
TC ([…], time 7 day): 69.8 mg/dL
TG ([…], time 7 day): 101.6 mg/dL
TP ([…], time 7 day): 5.9 g/dL
gamma-GTP ([…], time 7 day): 1 IU/L
A/G ([…], time 14 day): 0.8
ALP ([…], time 14 day): 1407.4 IU/L
ALT ([…], time 14 day): 40.8 IU/L
AST ([…], time 14 day): 66 IU/L
BUN ([…], time 14 day): 18 mg/dL
CRE ([…], time 14 day): 0.2 mg/dL
Ca ([…], time 14 day): 10.9 mg/dL
Cl ([…], time 14 day): 105 meq/L
DBIL ([…], time 14 day): 0.014 mg/dL
GLC ([…], time 14 day): 185.4 mg/dL
IP ([…], time 14 day): 7.4 mg/dL
K ([…], time 14 day): 4.2 meq/L
LDH ([…], time 14 day): 61 IU/L
Na ([…], time 14 day): 142.8 meq/L
PL ([…], time 14 day): 144.6 mg/dL
RALB ([…], time 14 day): 2.6 g/dL
TBIL ([…], time 14 day): 0.048 mg/dL
TC ([…], time 14 day): 76.2 mg/dL
TG ([…], time 14 day): 117 mg/dL
TP ([…], time 14 day): 6 g/dL
gamma-GTP ([…], time 14 day): 1 IU/L
A/G ([…], time 28 day): 0.7
ALP ([…], time 28 day): 1095.6 IU/L
ALT ([…], time 28 day): 36.8 IU/L
AST ([…], time 28 day): 62.2 IU/L
BUN ([…], time 28 day): 17.2 mg/dL
CRE ([…], time 28 day): 0.2 mg/dL
Ca ([…], time 28 day): 11.1 mg/dL
Cl ([…], time 28 day): 105 meq/L
DBIL ([…], time 28 day): 0.018 mg/dL
GLC ([…], time 28 day): 186 mg/dL
IP ([…], time 28 day): 6.2 mg/dL
K ([…], time 28 day): 3.8 meq/L
LDH ([…], time 28 day): 54.2 IU/L
Na ([…], time 28 day): 144.4 meq/L
PL ([…], time 28 day): 148.6 mg/dL
RALB ([…], time 28 day): 2.6 g/dL
TBIL ([…], time 28 day): 0.06 mg/dL
TC ([…], time 28 day): 73.8 mg/dL
TG ([…], time 28 day): 157 mg/dL
TP ([…], time 28 day): 6.4 g/dL
gamma-GTP ([…], time 28 day): 1.2 IU/L
